From US20220251141A1, “IMMUNOMODULATORS” (Bristol-Myers Squibb Company, priority 2019, published 2022)
Numbered stars: 1 amine (or outer) side, 2 acyl side, 3 side chain; on linkers, the order of the positions; unused ones are H or OH. Bridge positions count the residues as written; N and C are the ends. Square brackets hold non-standard residues; d marks the D form. Side chains are listed from the residue outwards. Peptide text beside a SMILES is read from it. * marks the point of attachment. Trp(1-CH2CO2Me) = COC(=O)Cn1cc(C[C@H](N)C(=O)O)c2ccccc21; Trp(1-CH2COOH) = N[C@@H](Cc1cn(CC(=O)O)c2ccccc12)C(=O)O; Phe(4-F) = N[C@@H](Cc1ccc(F)cc1)C(=O)O; Hyp = O=C(O)[C@@H]1C[C@@H](O)CN1; NMeNle = CCCC[C@H](NC)C(=O)O; Pen = CC(C)(S)[C@H](N)C(=O)O; NMeC = CN[C@@H](CS)C(=O)O; Pip = O=C(O)[C@@H]1CCCCN1; NMeA = CN[C@@H](C)C(=O)O; Dab = NCC[C@H](N)C(=O)O; Dap = NC[C@H](N)C(=O)O; NH(heptyl) = CCCCCCCN*; CO = O=C([*:1])[*:2]; Piv = CC(C)(C)C(=O)*

Biological target: T1, PD-1/PD-L1 (Homo sapiens, UniProt Q9NZQ7)
T1 construct: TVMV protease site linker (C); made in house; host or cells: HEK293T cells
Assay: PD-1/PD-L1 Homogenous Time-Resolved Fluorescence (HTRF) binding assay
Settings: PD-L1-His 10 nM final, PD-1-Ig 20 nM final; inhibitors pre-incubated with PD-L1-His for 15 m
How it was run: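 Compounds pre-incubated 15 min with human PD-L1(18-239)-His (10 nM final), then PD-1(25-167)-Ig (20 nM final) added for 15 min, in dPBS with 0.1% BSA and 0.05% Tween-20. Eu-cryptate anti-Ig (1 nM) and APC anti-His (20 nM) added, 30 min equilibration, 665/620 nm ratio read; IC50 reported.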

| SMILES | IC50 [nM] |
| --- | --- |
| CCCCCCCNC(=O)NCC[C@@H]1NC(=O)[C@H](Cc2c[nH]c3ccccc23)NC(=O)[C@@H]2C[C@@H](O)CN2C(=O)[C@H](CC(C)C)NC(=O)[C@H](CNC(=O)NCCCCCCC)NC(=O)[C@@H]2CCCN2C(=O)[C@H](CC(N)=O)NC(=O)[C@H](C)N(C)C(=O)[C@H](Cc2ccc(O)cc2)NC(=O)CSC[C@@H](C(=O)NCC(N)=O)NC(=O)[C@H](CC(C)C)NC(=O)[C@H](CCCC)N(C)C(=O)[C@H](CCCC)N(C)C(=O)[C@H](Cc2cn(CC(=O)OC)c3ccccc23)NC1=O [Example 2003] ({CH2CO}-Y[NMeA]NP[Dap]([CO-NH(heptyl)])L[Hyp]W[Dab]([CO-NH(heptyl)])[Trp(1-CH2CO2Me)][NMeNle][NMeNle]LCG-NH2; thioether N-14) | 24 |
| CCCC[C@H]1C(=O)N(C)[C@@H](CCCC)C(=O)N[C@@H](CC(C)C)C(=O)N(C)[C@H](C(N)=O)CSCC(=O)N[C@@H](Cc2ccc(F)cc2)C(=O)N2CCCC[C@H]2C(=O)N[C@@H](CC(=O)N(C)C)C(=O)N2CCC[C@H]2C(=O)N[C@@H](Cc2c[nH]cn2)C(=O)N[C@@H](CC(C)C)C(=O)N2C[C@H](O)C[C@H]2C(=O)N[C@@H](Cc2c[nH]c3ccccc23)C(=O)N[C@@H](CO)C(=O)N[C@@H](Cc2cn(CC(=O)O)c3ccccc23)C(=O)N1C [Example 10002] ({CH2CO}-[Phe(4-F)][Pip]D(NMe2)PHL[Hyp]WS[Trp(1-CH2COOH)][NMeNle][NMeNle]L[NMeC]-NH2; thioether N-14) | 52 |

These reach a lower IC50. Values come first.

| IC50 [nM] | SMILES |
| --- | --- |
| 12 | CCCC[C@H]1C(=O)N(C)[C@@H](CCCC)C(=O)N[C@@H](CC(C)C)C(=O)N(C)[C@H](C(N)=O)CSCC(=O)N[C@@H](Cc2ccc(F)cc2)C(=O)N2CCCC[C@H]2C(=O)N[C@@H](CC(=O)O)C(=O)N2CCC[C@H]2C(=O)N[C@@H](CN)C(=O)N[C@@H](CC(C)C)C(=O)N2C[C@H](O)C[C@H]2C(=O)N[C@@H](Cc2c[nH]c3ccccc23)C(=O)N[C@@H](CCN)C(=O)N[C@@H](Cc2cn(CC(=O)O)c3ccccc23)C(=O)N1C [Example 10003] ({CH2CO}-[Phe(4-F)][Pip]DP[Dap]L[Hyp]W[Dab][Trp(1-CH2COOH)][NMeNle][NMeNle]L[NMeC]-NH2; thioether N-14) |
| 11 | CCCC[C@H]1C(=O)N(C)[C@@H](CCCC)C(=O)N[C@@H](CC(C)C)C(=O)N(C)[C@H](C(N)=O)CSCC(=O)N[C@@H](Cc2ccc(F)cc2)C(=O)N2CCCC[C@H]2C(=O)N[C@@H](CC(=O)O)C(=O)N2CCC[C@H]2C(=O)N[C@@H](Cc2c[nH]cn2)C(=O)N[C@@H](CC(C)C)C(=O)N2C[C@H](O)C[C@H]2C(=O)N[C@@H](Cc2c[nH]c3ccccc23)C(=O)N[C@@H](CO)C(=O)N[C@@H](Cc2cn(CC(=O)O)c3ccccc23)C(=O)N1C [Example 10004] ({CH2CO}-[Phe(4-F)][Pip]DPHL[Hyp]WS[Trp(1-CH2COOH)][NMeNle][NMeNle]L[NMeC]-NH2; thioether N-14) |
| 4.9 | CCCC[C@H]1C(=O)N(C)[C@@H](CCCC)C(=O)N[C@@H](CC(C)C)C(=O)N[C@H](C(N)=O)C(C)(C)SCC(=O)N[C@@H](Cc2ccc(F)cc2)C(=O)N2CCCC[C@H]2C(=O)N[C@@H](CC(N)=O)C(=O)N2CCC[C@H]2C(=O)N[C@@H](CNC(=O)C(C)(C)C)C(=O)N[C@@H](CC(C)C)C(=O)N2C[C@H](O)C[C@H]2C(=O)N[C@@H](Cc2c[nH]c3ccccc23)C(=O)N[C@@H](CCN)C(=O)N[C@@H](Cc2cn(CC(=O)O)c3ccccc23)C(=O)N1C [Example 20010] ({CH2CO}-[Phe(4-F)][Pip]NP[Dap](Piv)L[Hyp]W[Dab][Trp(1-CH2COOH)][NMeNle][NMeNle]L[Pen]-NH2; thioether N-14) |
